# Assay results: publication PMC10475101, “Selective steroidogenic cytochrome P450 haem iron ligation by steroid-derived isonitriles” (Communications Chemistry, 2023)
# Where “and” joins values, the source holds several entries; their conditions need not be identical. Identical values can stand only once. Entries after “also recorded” stand apart in the source; their conditions may differ.
# Key:
# CYP17A1 [1] = molecular target: T1, CYP17A1 (Homo sapiens, UniProt P05093); test: biochemical
# T1 construct: made in house
# T1 sequence (P05093 24-508 limits assumed): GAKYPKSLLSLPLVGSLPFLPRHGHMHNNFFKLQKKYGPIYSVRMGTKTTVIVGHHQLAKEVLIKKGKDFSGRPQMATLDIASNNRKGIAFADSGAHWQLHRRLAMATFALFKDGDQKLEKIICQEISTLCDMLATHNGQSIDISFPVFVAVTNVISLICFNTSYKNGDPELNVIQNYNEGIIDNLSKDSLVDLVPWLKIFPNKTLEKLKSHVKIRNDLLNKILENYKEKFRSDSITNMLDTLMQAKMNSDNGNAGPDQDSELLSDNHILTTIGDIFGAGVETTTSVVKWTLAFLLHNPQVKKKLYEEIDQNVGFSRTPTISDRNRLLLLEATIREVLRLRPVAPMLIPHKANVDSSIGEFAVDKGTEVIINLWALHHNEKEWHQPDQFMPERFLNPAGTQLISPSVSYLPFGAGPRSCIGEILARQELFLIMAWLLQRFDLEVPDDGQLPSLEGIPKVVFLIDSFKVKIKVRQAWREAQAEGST
# Method: Metabolic activity of CYP17A1 was evaluated by measuring 17α-hydroxylation of progesterone as detected by HPLC with UV detection at 240 nm. A 1:4 ratio of CYP17A1 to recombinant NADPH-cytochrome P450 reductase was mixed and incubated on ice for 20 min. […] Reaction vials were warmed to 37 °C for 3 min, then catalysis was initiated by adding NADPH to a final concentration of 1 mM. After 10 min, metabolism was quenched by adding 300 µL of 20% trichloroacetic acid and placed on ice. The reaction vials were centrifuged to pellet the precipitated protein, then the supernatant was injected onto a C18 column for HPLC identification of product. Metabolite elution was normalized to β-estradiol as an internal standard. A standard curve of known product concentrations was used to convert normalized area under curve to amount of product produced. A four-parameter variable-slope equation was used to fit the data and calculate IC50 values for inhibitors using GraphPad Prism 9.
# 195 Metabolic activity of CYP17A1 was evaluated by measuring 17α-hydroxylation of progesterone as detected
# 196 by HPLC with UV detection at 240 nm. A 1:4 ratio of CYP17A1 to recombinant NADPH-cytochrome P450
# 197 reductase was mixed and incubated on ice for 20 minutes. This mixture was added to buffer (50 mM Tris, pH
# 199 Reaction vials were warmed to 37 °C for three minutes, then catalysis was initiated by adding NADPH to a
# 200 final concentration of 1 mM. After 10 minutes, metabolism was quenched by adding 300 µL of 20%
# 201 trichloroacetic acid and placed on ice. The reaction vials were centrifuged to pellet the precipitated protein,
# 202 then the supernatant was injected onto a C18 column (Phenomenex, Luna, 50 x 4.6 mm) for HPLC. The 30-
# 203 minute HPLC method ran at 0.8 mL/min and started with a mobile phase of 60% acetonitrile, 40% water with
# 204 0.2% acetic acid for five minutes, in creased to 80% acetonitrile over 10 minutes, held at 80% acetonitrile for
# 205 five minutes, 100% acetonitrile for five minutes, then returned to 60% acetonitrile to prepare for the next
# 206 sample. Metabolite elution was normalized to β-estradiol as an internal standard. A standard curve of known
# 207 product concentrations was used to convert normalized area under curve to amount of product produced. A
# 208 four-parameter variable-slope equation (Y=Ymin + (Ymax-Ymin)/(1+(IC50/X)^(Hill Slope))) was used to fit the data
# 209 and calculate IC50 values for inhibitors using GraphPad Prism 9.
# CYP3A4 [2] = molecular target: T2, CYP3A4 (Homo sapiens, UniProt P08684)
# T2 construct: made in house
# T2 sequence (P08684 whole entry): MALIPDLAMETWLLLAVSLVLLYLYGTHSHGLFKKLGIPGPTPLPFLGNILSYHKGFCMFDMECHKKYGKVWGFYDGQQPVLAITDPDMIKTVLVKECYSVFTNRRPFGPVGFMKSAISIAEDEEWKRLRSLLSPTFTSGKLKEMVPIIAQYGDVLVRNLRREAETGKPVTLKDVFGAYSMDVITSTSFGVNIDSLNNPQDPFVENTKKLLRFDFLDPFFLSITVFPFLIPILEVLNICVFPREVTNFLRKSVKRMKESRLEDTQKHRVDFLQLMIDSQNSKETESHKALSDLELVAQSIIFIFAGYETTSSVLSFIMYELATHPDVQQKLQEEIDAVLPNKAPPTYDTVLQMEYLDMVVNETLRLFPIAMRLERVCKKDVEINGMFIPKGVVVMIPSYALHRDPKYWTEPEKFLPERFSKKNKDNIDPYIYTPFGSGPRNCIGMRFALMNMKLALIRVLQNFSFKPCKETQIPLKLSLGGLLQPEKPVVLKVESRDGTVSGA
# Method: (§1) Reduction of the 1-bound P450 complex was observed by taking a baseline absorbance reading from 400 to 500 nm using a UV-visible scanning spectrophotometer, of a 1 cm quartz cuvette containing 1 µM P450, with compound 1 at a saturating concentration (i.e., ≥ concentration needed to reach ΔAmax), in binding assay buffer (100 mM potassium phosphate buffer (pH 7.4), 20% glycerol, and 100 mM sodium chloride). A small quantity of sodium dithionite (spatula tip-full) was then added to the cuvette, and the spectra were recorded periodically over time to observe the formation of peaks indicating the reduction (~426 and 456 nm) and subsequent reoxidation (~435 nm) of the complex. The total time course for Fig. 6B was 103 min and 37 s. Numerical data used to generate graphs in Fig. 6 are provided in Supplementary Data 3 in Excel format.
# (§2) 185 S2) Ligand binding and inhibition assays
# (§3) 186 Reduction and reoxidation assays. Reduction of the isonitrile-bound P450 complex was observed by taking
# (§4) 187 a baseline absorbance reading from 400 to 500 nm using a UV-visible scanning spectrophotometer, of a 1cm
# (§5) 188 quartz cuvette containing 1 µM P450, with the selected isonitrile compound at a saturating concentration
# (§6) 189 (i.e., ≥ concentration needed to reach ΔAmax), in the same buffer used for binding assays (100 mM potassium
# (§7) 190 phosphate buffer (pH 7.4), 20% glycerol, and 100 mM sodium chloride). A small quantity of sodium dithionite
# (§8) 191 (spatula tip-full) was then added to the cuvette, and the spectra were recorded periodically over time to
# (§9) 192 observe the formation of peaks indicating the reduction (~426 and 456 nm) and subsequent reoxidation
# (§10) 193 (~435 nm) of the complex. The total time course for Figure 6B was 103 minutes and 37 seconds. […]
# (§11) 217 initiated by adding NADPH to a final concentration of 1 mM. After 20 minutes, metabolism was quenched
# (§12) 218 by adding 50 µL acetonitrile and placed on ice. The reaction vials were centrifuged at 5000 xg for 5 minutes
# (§13) 219 to pellet the precipitated protein, then the supernatant was injected onto a C18 column (Phenomenex, Luna,
# (§14) 220 50 x 4.6 mm) for HPLC. Separation on HPLC was obtained using a mobile phase of 45%/55% water/methanol
# (§15) 221 for 40 minutes. A standard curve of known product concentrations was used to convert the area under the
# (§16) 222 curve to the amount of product produced.
# (§17) 224 S3) Crystallization of 1-CYP17A1 complex and X-ray diffraction
# (§18) 225 Protein Crystallization and Structure Determination. CYP17A1 was saturated with 3β-formyl-5α
# (§19) 226 pregnanolone-20(R)-isonitrile (verified by 430 nm Soret peak) and prepared for crystallization via hanging
# CYP3A4 [3] = molecular target: T2, CYP3A4; test: in vitro; type: binding
# Method: (Adapted from DeVore, et al.)[25] Ligand interaction with the heme iron was evaluated by titrating ligands into a cuvette containing purified CYP17A1[14], CYP2D6 L230D/L231R[26], or CYP3A4[27] and measured using a UV-visible scanning spectrophotometer. Enzyme was diluted to 0.2 µM in 100 mM potassium phosphate buffer (pH 7.4), 20% glycerol, and 100 mM sodium chloride and divided equally between two 5 mL cuvettes to evaluate high-affinity binding. Ligands dissolved in dimethylsulfoxide (DMSO) were added to the sample cuvette and an equal volume of DMSO to the reference cuvette. Difference spectra were recorded from 300 to 500 nm after equilibration of enzyme and ligand. Binding to the enzyme was measured as the difference in maximal and minimal absorbance: A387—A419 for pregnanolone and 3-formyl pregnanolone, and A435—A393 for compound 1 with CYP17A1; A434—A414 for compound 1 with CYP3A4 and CYP2D6. The dissociation constant and maximum spectral change were calculated using tight-binding or quadratic equation. All data fitting was accomplished using GraphPad Prism 9. Details of fitting are provided in Supplementary Information, and numerical data used to generate graphs in Figs. 2, 4 and 5 are provided in Supplementary Data 3 in Excel format.
# CYP2D6 = molecular target: T3, CYP2D6 (Homo sapiens, UniProt P10635, L230D/L231R); test: Reduction and reoxidation assay
# T3 construct: made in house
# T3 sequence (P10635 whole entry L230D/L231R): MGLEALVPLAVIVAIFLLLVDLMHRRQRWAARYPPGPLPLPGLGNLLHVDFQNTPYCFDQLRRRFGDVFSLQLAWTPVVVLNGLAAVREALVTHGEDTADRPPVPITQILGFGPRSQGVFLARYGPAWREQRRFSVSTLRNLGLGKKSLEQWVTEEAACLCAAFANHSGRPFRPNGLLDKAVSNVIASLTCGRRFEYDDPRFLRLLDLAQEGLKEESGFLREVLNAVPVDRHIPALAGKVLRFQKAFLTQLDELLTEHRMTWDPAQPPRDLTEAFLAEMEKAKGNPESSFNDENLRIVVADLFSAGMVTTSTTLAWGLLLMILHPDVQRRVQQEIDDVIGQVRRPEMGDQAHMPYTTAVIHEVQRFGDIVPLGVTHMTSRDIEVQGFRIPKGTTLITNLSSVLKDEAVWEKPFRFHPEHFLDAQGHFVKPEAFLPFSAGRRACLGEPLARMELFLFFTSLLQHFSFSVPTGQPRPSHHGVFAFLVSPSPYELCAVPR
# Method: as §1, §2, §3, §4, §5, §6, §7, §8, §9, §10, §11, §12, §13, §14, §15, §16, §17, §18, §19
# CYP17A1 [4] = molecular target: T4, CYP17A1 (Homo sapiens, UniProt P05093); test: Reduction and reoxidation assay
# T4 construct: made in house
# T4 sequence (P05093 1-508): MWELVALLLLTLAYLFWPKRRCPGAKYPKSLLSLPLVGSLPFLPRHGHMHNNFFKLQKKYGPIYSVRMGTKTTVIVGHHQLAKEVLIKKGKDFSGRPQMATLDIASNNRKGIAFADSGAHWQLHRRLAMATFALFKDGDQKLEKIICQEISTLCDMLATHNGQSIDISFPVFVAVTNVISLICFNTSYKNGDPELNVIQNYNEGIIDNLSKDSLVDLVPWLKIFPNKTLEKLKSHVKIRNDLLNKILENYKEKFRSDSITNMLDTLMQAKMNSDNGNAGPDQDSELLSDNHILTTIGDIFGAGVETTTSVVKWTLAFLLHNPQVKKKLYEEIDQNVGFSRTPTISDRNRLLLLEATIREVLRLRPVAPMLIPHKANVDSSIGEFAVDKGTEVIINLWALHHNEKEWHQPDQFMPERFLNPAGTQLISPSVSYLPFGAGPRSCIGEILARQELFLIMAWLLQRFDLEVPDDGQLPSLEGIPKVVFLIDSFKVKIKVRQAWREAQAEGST
# Method: as §1, §2, §3, §4, §5, §6, §7, §8, §9, §10, §11, §12, §13, §14, §15, §16, §17, §18, §19
# [5] = CYP3A4/20-(R)-1 complex reduced by sodium dithionite
# [6] = CYP2D6/20-(R)-1 complex reduced by sodium dithionite
# [7] = CYP17A1/20-(R)-1 complex reduced by sodium dithionite
compound,measurement,setting,value
"[C-]#[N+][C@H](C)[C@H]1CC[C@H]2[C@@H]3CC[C@H]4C[C@@H](OC=O)CC[C@]4(C)[C@H]3CC[C@]12C [Compound 1, 3β-formyl-5α-pregnanolone-(R)-20-isonitrile]",IC50,CYP17A1 [1],1300 nM
same,slope of the inhibition curve,CYP17A1 [1]; CYP17A1 progesterone hydroxylation,2.4
same,Soret peak after reoxidation in air,"CYP3A4 [2]; CYP3A4/20-(R)-1, 103 min",~ 435 nm and 437.5 nm
same,reoxidation of reduced complex in air,"CYP3A4 [2]; CYP3A4/20-(R)-1, 103 min",slowly re-oxidizes
same,"split Soret after reduction, higher-wavelength maximum",CYP3A4 [2]; [5],454 nm
same,"split Soret after reduction, lower-wavelength maximum",CYP3A4 [2]; [5],428 nm
same,contribution of Fe—C dative bond to the free energy of complexation,"CYP3A4 [3]; CYP3A4, from Kd of 20-(R)-1 versus parent steroid",~ 6 kJ/mol
same,dissociation constant for CYP3A4 relative to CYP17A1,CYP3A4 [3]; CYP3A4 versus CYP17A1,more than a billion times higher
same,Kd,"CYP3A4 [3]; human, pH 7.4, dissociation constant (Kd), protein 200 nM, 5 cm cuvette, tight-binding or quadratic equation, Fig. 4B: n = 3, 95% CI 120–215 nM",167 nM
same,Soret shift on titration indicating Fe—CN—R bond formation,CYP3A4 [3]; titration of CYP3A4,435 nm
same,difference spectrum peak indicative of Fe—CN bond formation,CYP3A4 [3]; titration of CYP3A4,435 nm
same,Soret peak after reoxidation in air,CYP2D6; CYP2D6/20-(R)-1,~ 435 nm and 437 nm
same,reoxidation of reduced complex in air,"CYP2D6; CYP2D6/20-(R)-1, same time period",re-oxidizes in air
same,"split Soret after reduction, higher-wavelength maximum",CYP2D6; [6],455 nm
same,"split Soret after reduction, lower-wavelength maximum",CYP2D6; [6],431 nm
same,reoxidation of reduced complex in air,"CYP17A1 [4]; CYP17A1/20-(R)-1, in air over 105 min",largely resistant to re-oxidation; also recorded: little reoxidation
same,"split Soret after reduction, higher-wavelength maximum",CYP17A1 [4]; [7],454 nm
same,"split Soret after reduction, lower-wavelength maximum",CYP17A1 [4]; [7],430 nm and 429.5 nm
